Earlier results as cited in US10537540B2, “Pharmaceutical composition for promoting nerve injury restoration and application thereof” (priority 2012, dated 2020).

Assays:
[1] = test system: rat spinal cord injury model
[2] = intravenous infusion of 5 g

SMILES | Lipid peroxidation and free radicals after spinal cord injury [1] | Urine induced [2]
Cc1c(C)c2c(c(C)c1OP(=O)([O-])OC1=C(O)[C@@H]([C@@H](O)CO)OC1=O)CC[C@@](C)(CCC[C@H](C)CCC[C@H](C)CCCC(C)C)O2.[K+] [EPC-K1] | significantly block lipid peroxidation and remove free radicals | 
Cc1ncc(CO)c(CO)c1O.Cl [vitamin B6] |  | about 380 mL
